We go through 13 compounds from ChEMBL document CHEMBL1201862, “PubChem BioAssay data set” (2004).

Some test systems named below: OVCAR-5; HCT-116; OVCAR-3; Malme-3M; HL-60; K562; NCI-H23; RXF 393; HOP-62; CCRF-CEM; IGROV-1; NCI-H460; 786-0; SK-MEL-28; SN12C; SR.
Common to all, as to assay: DTP human tumour cell line panel, 48 h

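Assay format: 96-well plates, 48-hour exposure. GI50 marks 50% less growth.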 Active and inactive are the calls of the source. Cut-off read from the data, not from the text of the source: active = GI50 up to about 1.1 µM and inactive = higher.

One may read the GI50 as the concentration at which growth is held to half of that of the control. In the case of `CCCCN(CCCC)CC(C(C)=O)C(c1ccccc1)c1c(O)c2ccccc2oc1=O` (stereo unspecified), the GI50 with OVCAR-5, with HCT-116, in the experiment with OVCAR-3, with Malme-3M, in the experiment with HL-60 and with K562 was > 100 µM (inactive) in each case. The GI50 was > 100 µM (inactive) in the experiment on NCI-H23; 84.7 µM (inactive) in the experiment on RXF 393; > 100 µM (inactive) in the experiment on HOP-62; > 100 µM (inactive) in the experiment with CCRF-CEM; > 100 µM (inactive) in the experiment on IGROV-1; > 100 µM (inactive) with NCI-H460. Moreover, the GI50 with 786-0, with SK-MEL-28, with SN12C and with SR was > 100 µM (inactive) each time.
In the case of `Cc1cc(NCCCCCCNc2cc(C)nc3ccc(Cl)cc23)c2cc(Cl)ccc2n1`, the GI50 in the experiment on OVCAR-5 is 19.7 µM (inactive); with HCT-116, 14.7 µM (inactive); with OVCAR-3, 18 µM (inactive); with Malme-3M it was 28.1 µM (inactive); in the experiment on HL-60, 7.4 µM (inactive); in the experiment with K562, 2.49 µM (inactive). Moreover, the GI50 is 15 µM (inactive) with NCI-H23; 16.1 µM (inactive) in the experiment on RXF 393; 75.5 µM (inactive) with HOP-62; 3.63 µM (inactive) in the experiment on CCRF-CEM; 14.8 µM (inactive) in the experiment on NCI-H460; 17.4 µM (inactive) in the experiment with 786-0. In addition, the GI50 is 17.2 µM (inactive) in the experiment on SK-MEL-28, 22 µM (inactive) in the experiment on SN12C and 2.09 µM (inactive) in the experiment with SR.
On to `COC(=O)C(C(=O)C(=O)Nc1ccc(C)cc1)c1nc2ccc([N+](=O)[O-])cc2nc1O` (stereo unspecified), for which the GI50 with OVCAR-5 is > 100 µM (inactive); in the experiment on HCT-116 it was > 100 µM (inactive); with OVCAR-3, > 100 µM (inactive); with Malme-3M it was > 100 µM (inactive); in the experiment on HL-60 it was 35.6 µM (inactive); in the experiment with K562, 30.1 µM (inactive). For the same compound, the GI50 with NCI-H23 is > 100 µM (inactive); with RXF 393 it was > 100 µM (inactive); in the experiment on HOP-62, > 100 µM (inactive); with CCRF-CEM, 36.1 µM (inactive); in the experiment on IGROV-1, > 100 µM (inactive); in the experiment on NCI-H460, > 100 µM (inactive). Besides, the GI50 in the experiment on 786-0, in the experiment on SK-MEL-28, in the experiment on SN12C and with SR was > 100 µM (inactive) each time.
Regarding `CC(=O)c1cccc(N2COC(C)(C)c3nc4ccccc4n3C2)c1`, the GI50 with HCT-116, in the experiment with OVCAR-3, with Malme-3M, in the experiment on HL-60, in the experiment with K562 and with NCI-H23 was > 100 µM (inactive) throughout. Moreover, the GI50 in the experiment on RXF 393, in the experiment with HOP-62, in the experiment with CCRF-CEM, with IGROV-1, in the experiment on NCI-H460 and with 786-0 was > 100 µM (inactive) each time. The GI50 in the experiment with SK-MEL-28, in the experiment on SN12C and with SR was > 100 µM (inactive) each time.
`CN(C)CC/C(=N\Nc1ccc(Cl)cc1)c1ccccc1`: the GI50 with OVCAR-5 was 1.24 µM (inactive); in the experiment with HCT-116 it was 1.18 µM (inactive); in the experiment on OVCAR-3, 1.51 µM (inactive); in the experiment on Malme-3M it was 1.98 µM (inactive); in the experiment with HL-60, 0.369 µM (active); in the experiment on K562, 0.327 µM (active). In addition, the GI50 in the experiment with NCI-H23 is 1.95 µM (inactive); with RXF 393, 2.57 µM (inactive); in the experiment with HOP-62, 1.68 µM (inactive); in the experiment on CCRF-CEM it was 0.417 µM (active); in the experiment on IGROV-1, 1.28 µM (inactive); in the experiment with NCI-H460, 1.1 µM (active). Besides, the GI50 is 1.26 µM (inactive) with 786-0, 1.52 µM (inactive) with SK-MEL-28, 1.58 µM (inactive) in the experiment on SN12C and 0.415 µM (active) in the experiment on SR.
As for `CC(=O)Nc1cc2c(s1)CCC1CC(=O)NN=C21` (stereo unspecified), the GI50 in the experiment on OVCAR-5, in the experiment on HCT-116, with OVCAR-3, in the experiment with Malme-3M, in the experiment on HL-60 and in the experiment with K562 was > 100 µM (inactive) each time. Also, the GI50 in the experiment on NCI-H23, in the experiment on RXF 393, with HOP-62, with CCRF-CEM, in the experiment on IGROV-1 and in the experiment on NCI-H460 was > 100 µM (inactive) in each case. Also, the GI50 in the experiment with 786-0, in the experiment with SK-MEL-28, with SN12C and with SR was > 100 µM (inactive) throughout.
For `CCN(CC)C(=O)COc1ccc(Br)cc1Br`, the GI50 is > 100 µM (inactive) in the experiment with OVCAR-5; > 100 µM (inactive) with HCT-116; > 100 µM (inactive) in the experiment on OVCAR-3; > 100 µM (inactive) in the experiment on Malme-3M; 83.9 µM (inactive) with HL-60; > 100 µM (inactive) with K562. Moreover, the GI50 was 82.6 µM (inactive) in the experiment with NCI-H23; > 100 µM (inactive) in the experiment with RXF 393; > 100 µM (inactive) in the experiment on HOP-62; > 100 µM (inactive) with CCRF-CEM; > 100 µM (inactive) in the experiment with NCI-H460; > 100 µM (inactive) with 786-0. The GI50 in the experiment on SK-MEL-28, in the experiment with SN12C and in the experiment with SR was > 100 µM (inactive) in each case.
As to `CC(C)(c1ccc(C=O)o1)c1ccc(C(C)(C)c2ccc(C=O)o2)o1`, the GI50 in the experiment on OVCAR-5, in the experiment on HCT-116, with Malme-3M, in the experiment on HL-60, in the experiment with K562 and with NCI-H23 was > 100 µM (inactive) in each case. Also, the GI50 with RXF 393, in the experiment with HOP-62, in the experiment with CCRF-CEM, in the experiment with IGROV-1, in the experiment on NCI-H460 and in the experiment on 786-0 was > 100 µM (inactive) in each case. The GI50 with SK-MEL-28 and with SR was > 100 µM (inactive) in each case.
Turning to `N#CC(C#N)C(c1ccccc1)c1ccccc1`, the GI50 with OVCAR-5 was > 100 µM (inactive); in the experiment with HCT-116 it was > 100 µM (inactive); in the experiment with OVCAR-3 it was > 100 µM (inactive); in the experiment with Malme-3M, > 100 µM (inactive); in the experiment with HL-60, > 100 µM (inactive); in the experiment with K562, 91 µM (inactive). The GI50 in the experiment on RXF 393, with HOP-62, with CCRF-CEM, in the experiment with IGROV-1, in the experiment on NCI-H460 and in the experiment with 786-0 was > 100 µM (inactive) throughout. Also, the GI50 in the experiment with SK-MEL-28, in the experiment with SN12C and with SR was > 100 µM (inactive) throughout.
As for `N#CCc1ccc(C(C#N)/C(CCCC(=O)Nc2cccc([N+](=O)[O-])c2)=N/NC(N)=S)cc1` (stereo unspecified), the GI50 with OVCAR-5 was > 100 µM (inactive); in the experiment on HCT-116 it was > 100 µM (inactive); in the experiment on OVCAR-3 it was 75.3 µM (inactive); with Malme-3M, > 100 µM (inactive); with HL-60 it was > 100 µM (inactive); with K562, 81.7 µM (inactive). Also, the GI50 with NCI-H23 is > 100 µM (inactive); in the experiment on RXF 393, > 100 µM (inactive); with HOP-62 it was > 100 µM (inactive); with CCRF-CEM, 51.6 µM (inactive); in the experiment on IGROV-1, > 100 µM (inactive); with NCI-H460 it was > 100 µM (inactive). In addition, the GI50 in the experiment with 786-0, in the experiment with SK-MEL-28, in the experiment with SN12C and with SR was > 100 µM (inactive) each time.
In the case of `CCCn1c(SCC)c2cc3cc4ccccc4cc3cc2c1-c1nc(F)nc(F)n1`, the GI50 in the experiment with OVCAR-5, in the experiment with HCT-116, with OVCAR-3, in the experiment on Malme-3M, in the experiment on HL-60 and in the experiment on K562 was > 100 µM (inactive) in each case. Further, the GI50 in the experiment on NCI-H23, in the experiment on RXF 393, in the experiment with HOP-62, in the experiment on CCRF-CEM, in the experiment on IGROV-1 and with NCI-H460 was > 100 µM (inactive) each time. Further, the GI50 with 786-0, in the experiment with SK-MEL-28, in the experiment with SN12C and in the experiment with SR was > 100 µM (inactive) each time.
Turning to `CCCc1c(C(=O)OCC)[nH]c(C(=O)CCC(=O)c2[nH]c(C(=O)OCC)c(CCC)c2C(=O)OCC)c1C(=O)OCC`, the GI50 in the experiment with OVCAR-5 is > 100 µM (inactive); with HCT-116 it was > 100 µM (inactive); with OVCAR-3, 68.5 µM (inactive); with Malme-3M it was > 100 µM (inactive); with HL-60, > 100 µM (inactive); with K562, > 100 µM (inactive). Moreover, the GI50 in the experiment on NCI-H23 was > 100 µM (inactive); with RXF 393 it was 70.5 µM (inactive); in the experiment with CCRF-CEM it was > 100 µM (inactive); in the experiment with IGROV-1, > 100 µM (inactive); with NCI-H460, > 100 µM (inactive); in the experiment on 786-0 it was 54.6 µM (inactive). Further, the GI50 in the experiment with SK-MEL-28, with SN12C and with SR was > 100 µM (inactive) in each case.
Consider `CC1(C)CCC[C@@]2(C)C1CCC1(C)C(CCc3ccoc3)/C(=C/OS(=O)(=O)O)CCC12` (stereo partly specified), for which the GI50 with OVCAR-5 is > 100 µM (inactive); with HCT-116 it was 16.5 µM (inactive); with OVCAR-3 it was > 100 µM (inactive); in the experiment on Malme-3M it was > 100 µM (inactive); in the experiment with HL-60, 37.1 µM (inactive); with K562, 31.2 µM (inactive). For the same compound, the GI50 in the experiment with NCI-H23 is 50.4 µM (inactive); in the experiment with RXF 393, 61.9 µM (inactive); in the experiment with HOP-62, > 100 µM (inactive); with CCRF-CEM, 25.4 µM (inactive); in the experiment on IGROV-1, > 100 µM (inactive); in the experiment with NCI-H460, > 100 µM (inactive). Moreover, the GI50 in the experiment on 786-0 is > 100 µM (inactive); in the experiment on SK-MEL-28, 58.7 µM (inactive); with SN12C, > 100 µM (inactive); in the experiment with SR, 23.1 µM (inactive).
